From US20230219939A1, “N-(1-CYANO-PYRROLIDIN-3-YL)-5-(3-(TRIFLUOROMETHYL)PHENYL)OXAZOLE-2-CARBOXAMIDE DERIVATIVES AND THE CORRESPONDING OXADIAZOLE DERIVATIVES AS USP30 INHIBITORS FOR THE TREATMENT OF MITOCHONDRIAL DYSFUNCTION” (MISSION THERAPEUTICS LIMITED, priority 2020, published 2023)

Legend:
mouse hepatocytes = test: Hepatocyte Cl mouse; assay type: in vitro ADME
Method: Hep Cl mouse: in vitro hepatocyte clearance in mouse cells.
(§1) Clu: in vitro clearance. Clu as defined here is the scaled clearance, in turn calculated from the intrinsic clearance. The intrinsic clearance is the predicted clearance due to hepatic metabolic reactions, determined from incubation of a compound in a hepatocyte preparation.

PK mouse 10 mg/kg PO = assay type: in vivo
Text: Oral F: Oral bioavailability.

Log D = assay type: physicochemical; conditions: pH 7.4; read-out: Log D measured at pH 7.4
Text: log D: distribution co-efficient; lipophilicity measurement.

[1] = system: USP2, USP6, USP10, USP16, USP21, USP22, USP25, USP28; test: DUB selectivity panel IC50; assay type: biochemical
Turbidimetric solubility = assay type: physicochemical; conditions: aqueous buffer, kinetic from dmso stock
Text: Turbidimetric solubility: Test compound solution prepared in DMSO diluted into aqueous buffer.
Turbidimetry is used as the end-point by measuring absorbance at 620 nm.

[2] = Brain microdialysis PK 30 mg/kg PO mouse; assay type: in vivo
Text: Kpuu is the ratio of unbound drug in brain to unbound drug in plasma and may be indicative of potential for treating peripheral and/or CNS indications.

PK mouse 2 mg/kg iv = assay type: in vivo; conditions: plasma, read-out: Cl plasma
Text: Cl in vivo clearance: Pharmacokinetic measurement of the volume of plasma (or any matrix) from which a substance is completely removed per unit time.

FaSSIF solubility = assay type: physicochemical; conditions: pH 6.5, simulated intestinal fluid fasted state
Text: FaSSIF: simulated intestinal fluid in fasted state measured at pH 6.5.

[3] = Plasma binding, equilibrium dialysis; assay type: in vitro ADME; conditions: mouse plasma; read-out: Binding Mouse Plasma fu, p
Text: Plasma fu,p: The free fraction of a compound in plasma preparation determined by in vitro equilibrium dialysis. It is understood that only unbound (free) compound is capable of engaging with the target.

Cathepsin L = Cathepsin L (Homo sapiens, UniProt P07711); test: Cathepsin L IC50; assay type: biochemical; conditions: read-out: Cathepsin IC50 (μM) Cathepsin L
Sequence of Cathepsin L (P07711 114-333, species assumed): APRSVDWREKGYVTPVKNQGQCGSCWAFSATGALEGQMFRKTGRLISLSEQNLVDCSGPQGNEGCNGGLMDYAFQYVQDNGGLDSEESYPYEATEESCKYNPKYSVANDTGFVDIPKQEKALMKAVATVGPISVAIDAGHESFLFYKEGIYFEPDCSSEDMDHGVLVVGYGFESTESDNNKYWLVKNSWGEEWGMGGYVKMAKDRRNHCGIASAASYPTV

UUO injured kidneys = test: Unilateral ureteral obstructive kidney disease model (UUO); assay type: in vivo, C57BL/6 mice; conditions: 10 days
Text: UUO causes renal injury characterised by tubular cell injury, interstitial inflammation and fibrosis. It serves as a model of irreversible post-renal acute kidney injury (AKI). Experimental UUO has illustrated the molecular mechanisms of apoptosis, inflammation and fibrosis, all of which are key processes in renal injury, regardless of the primary insult. Consequently, the UUO model provides investigators information beyond obstruction (Chevalier et al, 2009, Kidney Int 75(11): 1145-1152). Example 1 was assessed in the UUO model to determine the ability of the compound to attenuate progressive tubulointerstitial fibrosis and chronic kidney disease (CKD). On day 1 of the study, adult C57BL/6 mice were dosed by oral gavage according to one of the following dosing regimens; Vehicle or 15 mg/kg Example 1 (p.o.) BID. Two hours post dosing on day 1 study mice underwent surgery to ligate the left ureter at two points. Successful UUO surgery was later confirmed by observation of dilation of renal pelvis due to hydronephrosis. The animals were dosed according to their prescribed regimen for 10 days at which point kidneys were harvested, or histopathology assessment and for protein/RNA assessment. Picrosirius Red staining was performed to assess the extent of collagen deposition and IHC was employed to assess relative α-Smooth Muscle Actin (α-SMA) expression.

[4] = system: HCT116 human colorectal carcinoma cells; test: In vitro cytotoxicity (Cell Tox), alamarBlue; assay type: cell-based; conditions: HCT-116, 96-hour continual compound exposure
Text: There is also a need for compounds that have a favourable safety profile, which may be measured by a variety of standard in vitro and in vivo methods. A cell toxicity counter-screen may be used to assay the anti-proliferative/cytotoxic effect in a particular cell line (e.g. HCT116) by fluorometric detection of rezasurin (alamarBlue™) to resofurin in response to mitochondrial activity.
Measured in HCT116 human colorectal carcinoma cells using alamarBlue™ as the assay endpoint. Compound cytotoxicity was measured over a period of 96-hour continual compound exposure.

[5] = Brain homogenate binding, equilibrium dialysis; assay type: in vitro ADME; conditions: mouse, read-out: Binding Mouse Brain fu, br
Text: Brain fu,br: The free fraction of a compound in brain homogenate preparation determined by in vitro equilibrium dialysis. It is understood that only unbound (free) compound is capable of engaging with the target.

hepatocytes = test: Hepatocyte Cl human; assay type: in vitro ADME
Method: Hep Cl human: in vitro hepatocyte clearance in human cells.
as §1

Cathepsins B, K, L, S, V = test: Cathepsin panel IC50 (summary over B, K, L, S, V); assay type: biochemical
UCHL1 = molecular target: T1, UCHL1 (Homo sapiens, UniProt P09936); test: UCHL1 DUB IC50; assay type: biochemical
T1 sequence (P09936 1-223): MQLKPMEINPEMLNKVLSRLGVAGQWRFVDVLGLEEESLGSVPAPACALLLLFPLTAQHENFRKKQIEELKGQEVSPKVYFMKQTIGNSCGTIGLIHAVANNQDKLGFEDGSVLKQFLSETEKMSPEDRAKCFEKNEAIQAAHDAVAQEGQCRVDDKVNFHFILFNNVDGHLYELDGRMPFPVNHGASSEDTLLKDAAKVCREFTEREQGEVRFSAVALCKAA

COC[C@@H]1C[C@@H](NC(=O)c2ncc(-c3cccc(C(F)(F)F)c3)o2)CN1C#N [Example 1, N-((3R,5S)-1-Cyano-5-(methoxymethyl)-pyrrolidin-3-yl)-5-(3-(trifluoromethyl)phenyl)oxazole-2-carboxamide]
Hepatocyte Cl mouse Scaled Clu (mouse hepatocytes): 81 mL/min/kg | hepatocyte metabolic stability compared to Reference Examples A and B (in words) (mouse hepatocytes): significantly improved hepatocyte metabolic stability | Unbound plasma Cmax/TOM20-Ub cell potency (PK mouse 10 mg/kg PO; 10 mg/kg PO dose - mouse): 41-fold | bioavailability (PK mouse 10 mg/kg PO; plasma, po, mouse 10 mg/kg, read-out: Oral F (%)): 82% | logD (Log D): 2.6 | DUB selectivity preference for USP30 v 8 DUBs [1]: >1777 | IC50 ([1]; range over the eight DUBs, read-out: DUB IC50 (μM) USP2, USP6, USP10, USP16, USP21, USP22, USP25, USP28): 16 to 97.9 µM | solubility (Turbidimetric solubility): > 100 µM | Kp uu ([2]; Brain microdialysis PK 30 mg/kg PO - mouse): 1.2 | pre-frontal cortex Cmax, u/cell TOM20-Ub ([2]; Brain microdialysis PK 30 mg/kg PO mouse): 23-fold | clearance (PK mouse 2 mg/kg iv): 19 mL/min/kg | FaSSIF (μM) measured at pH 6.5 (FaSSIF solubility): 200 μM | fraction unbound [3]: 0.12 | IC50 (Cathepsin L): 30.4 µM | α-SMA levels in UUO injured kidneys (IHC) (UUO injured kidneys; 15 mg/kg oral BID, vs vehicle treated controls): statistical reduction in α-SMA levels | collagen deposition (picrosirius red staining) in ligated kidneys (UUO injured kidneys; 15 mg/kg p.o. BID, vs vehicle): statistically reduced collagen deposition | EC50 [4]: > 30 µM | fraction unbound [5]: 0.05 | Hepatocyte Cl human Scaled Clu (hepatocytes): 10.3 mL/min/kg | Selectivity preference for USP30 v cathepsins (Cathepsins B, K, L, S, V): >1133 | IC50 (Cathepsins B, K, L, S, V; range over the five cathepsins, read-out: Cathepsin IC50 (μM) B, K, L, S, V): 10.2 to 138 µM | IC50 (UCHL1): > 300 µM
